Consider four molecules from patent US12121512B2, “Anti-fungal agent” (priority 2019, dated 2024).

Assay [1] deals with Cryptococcus neoformans var. grubii clinical isolates and multi-azole resistant strains. Description: microbe, parasite or virus in culture. Conditions: E-test; for MIC range: 14 isolates (Nos. 1-14); for MIC: Cryptococcus neoformans. The format is cell-based. From the text:
Six isolates of cryptococcus were obtained from skin-infected cats and five from systemically infected cats, for a total of 11 strains.
(§1) Three isolates of cryptococcus were acquired from skin-infected humans.
(§2) All of the above-acquired isolates were Cryptococcus neoformans var. grubii strains (type A).
(§3) Further, as described below, 3 multidrug-resistant strains resistant to fluconazole (FLCZ) and voriconazole (VRCZ) as azole-based antifungal agents were acquired.
Thereafter, 12 colonies generated on the plate were inoculated on Sabouraud glucose agar medium containing 5 μg/ml of VRCZ. This was cultured at room temperature for 10 days, and the obtained colonies were further subcultured, to obtain 3 azole-based multidrug-resistant strains.
Sensitivity to fluconazole (FLCZ), itraconazole (ITCZ) and voriconazole (VRCZ) was evaluated using the E-test. […] E-test gradient strips were purchased from AB BIODISK. The MICs for FLCZ, ITCZ and VRCZ were determined after culturing at 35° C. for 72 hours. Each isolate was tested twice at shifted times, and each test included twice measurements.

The test system is the same in assay [2]. Description: CLSI M27-A3 broth microdilution MIC assay. In kind it is cell-based. Conditions: for MIC: Cryptococcus neoformans.
Source text: Six isolates of cryptococcus were obtained from skin-infected cats and five from systemically infected cats, for a total of 11 strains. One strain of cat skin cryptococcus and one strain of cat systemic cryptococcus were fluconazole-resistant.
as §1, §2, §3
Clinically separated fluconazole (FLCZ) resistant Cryptococcus neoformans cells (2.3×10^5) were inoculated on Sabouraud glucose agar medium containing 3 μg/ml of voriconazole (VRCZ), and cultured at room temperature for 7 days. Thereafter, 12 colonies generated on the plate were inoculated on Sabouraud glucose agar medium containing 5 μg/ml of VRCZ. This was cultured at room temperature for 10 days, and the obtained colonies were further subcultured, to obtain 3 azole-based multidrug-resistant strains.
The strains obtained in Example 1 were maintained on Sabouraud glucose agar medium until the test of sensitivity to antifungal compounds.
Sensitivity to ravuconazole (RVCZ) was determined according to the CLSI M27-A3 guideline using broth microdilution assay. The minimum inhibitory concentration (MIC) was measured after culturing at 35° C. for 72 hours. MIC was defined as the lowest concentration that induces significant inhibition of growth (inhibition of about 50% or more).
CLSI M27-A3 test and E-test MIC assay were performed using Candida parapsilosis ATCC 22019 and Candida kruzei ATCC 6258 purchased from ATCC as controls. As a result, a high correlation was observed between the MIC results of the azole-based drugs obtained in the CLSI M27-A3 test and the E-test, so the results of both were compared.
(In general: Broth dilution looks for growth in wells or tubes with falling amounts of substance.)

The mark [3] stands for this setting: 72 h, Strain No. 1, Feline cutaneous cryptococcosis, 35° C.
Setting [4] is: 72 h, Strain No. 2, Feline systemic cryptococcosis, 35° C.
Where [5] appears, read: 72 h, Strain No. 3, Feline systemic cryptococcosis, 35° C.
The mark [6] stands for this setting: 72 h, Strain No. 4, Feline cutaneous cryptococcosis, 35° C.
The mark [7] stands for this setting: 72 h, Strain No. 5, Feline cutaneous cryptococcosis, 35° C.
Setting [8] is: 72 h, Strain No. 6, Feline systemic cryptococcosis, 35° C.
Setting [9] is: 72 h, Strain No. 7, Feline systemic cryptococcosis, 35° C.
Where [10] appears, read: 72 h, Strain No. 8 (FLCZ resistant strain), Feline systemic cryptococcosis, 35° C.
[11] abbreviates: 72 h, Strain No. 9, Feline systemic cryptococcosis, 35° C.
Where [12] appears, read: 72 h, Strain No. 10, Feline cutaneous cryptococcosis, 35° C.
Where [13] appears, read: 72 h, Strain No. 11, Human cutaneous cryptococcosis, 35° C.
The mark [14] stands for this setting: 72 h, Strain No. 12, Human cutaneous cryptococcosis, 35° C.
Where [15] appears, read: 72 h, Strain No. 13, Human cutaneous cryptococcosis, 35° C.
Where [16] appears, read: 72 h, Strain No. 14 (FLCZ resistant strain), Feline cutaneous cryptococcosis, 35° C.
The mark [17] stands for this setting: 72 h, Strain No. 15, Multi-azole resistance strain, 35° C.
Setting [18] is: 72 h, Strain No. 16, Multi-azole resistance strain, 35° C.
Where [19] appears, read: 72 h, Strain No. 17, Multi-azole resistance strain, 35° C.
Where [20] appears, read: azole-based multidrug-resistant strains (Nos. 15-17).
Where [21] appears, read: read-out: average MIC, 14 isolates (Nos. 1-14).

In brackets after ≈: the same amount, converted by molar mass.

`OC(Cn1cncn1)(Cn1cncn1)c1ccc(F)cc1F` [FLCZ, fluconazole]: the MIC range in assay [1] was less than 0.016 to 128 µg/mL. Also, the MIC in assay [1] (setting [3]) is 3 µg/mL (≈ 9.8 µM); in assay [1] (setting [4]), less than 0.016 µg/mL; in assay [1] (setting [5]), 6 µg/mL (≈ 19.6 µM); in assay [1] (setting [6]), 16 µg/mL (≈ 52.2 µM); in assay [1] (setting [7]), 32 µg/mL (≈ 104 µM); in assay [1] (setting [8]), 2 µg/mL (≈ 6.53 µM). The MIC in assay [1] (setting [9]) is 1.5 µg/mL (≈ 4.9 µM); in assay [1] (setting [10]), greater than 256 µg/mL; in assay [1] (setting [11]), 1.5 µg/mL (≈ 4.9 µM); in assay [1] (setting [12]), 14 µg/mL (≈ 45.7 µM); in assay [1] (setting [13]) it was 1.5 µg/mL (≈ 4.9 µM); in assay [1] (setting [14]) it was 1.5 µg/mL (≈ 4.9 µM). Also, the MIC in assay [1] (setting [15]) is 0.75 µg/mL (≈ 2.45 µM); in assay [1] (setting [16]) it was 128 µg/mL (≈ 418 µM); in assay [1] (setting [17]), greater than 256 µg/mL; in assay [1] (setting [18]) it was greater than 256 µg/mL; in assay [1] (setting [19]), greater than 256 µg/mL; in assay [1] (setting [20]), greater than 256 µg/mL. In assay [1] (setting [21]), the MIC turned out to be 17.3 µg/mL (≈ 56.5 µM).

For `CCC(C)n1ncn(-c2ccc(N3CCN(c4ccc(OCC5COC(Cn6cncn6)(c6ccc(Cl)cc6Cl)O5)cc4)CC3)cc2)c1=O` (stereo not shown) [ITCZ, itraconazole], the MIC range in assay [1] is less than 0.002 to 0.75 µg/mL. The MIC in assay [1] (setting [3]) was determined as 0.047 µg/mL (≈ 0.0666 µM); in assay [1] (setting [4]), 0.002 µg/mL (≈ 0.00283 µM); in assay [1] (setting [5]) it was 0.23 µg/mL (≈ 0.326 µM); in assay [1] (setting [6]), 0.018 µg/mL (≈ 0.0255 µM); in assay [1] (setting [7]), 0.5 µg/mL (≈ 0.709 µM); in assay [1] (setting [8]), 0.064 µg/mL (≈ 0.0907 µM). For the same molecule, the MIC in assay [1] (setting [9]) is 0.38 µg/mL (≈ 0.539 µM); in assay [1] (setting [10]), 0.25 µg/mL (≈ 0.354 µM); in assay [1] (setting [11]) it was 0.23 µg/mL (≈ 0.326 µM); in assay [1] (setting [12]) it was 0.75 µg/mL (≈ 1.06 µM); in assay [1] (setting [13]), 0.19 µg/mL (≈ 0.269 µM); in assay [1] (setting [14]), 0.125 µg/mL (≈ 0.177 µM). Moreover, the MIC in assay [1] (setting [15]) is 0.125 µg/mL (≈ 0.177 µM); in assay [1] (setting [16]), 0.38 µg/mL (≈ 0.539 µM); in assay [1] (setting [17]), greater than 32 µg/mL; in assay [1] (setting [18]), greater than 32 µg/mL; in assay [1] (setting [19]), greater than 32 µg/mL; in assay [1] (setting [20]), greater than 32 µg/mL. For the same molecule, the MIC in assay [1] (setting [21]) worked out at 0.235 µg/mL (≈ 0.333 µM).

Turning to `C[C@@H](c1nc(-c2ccc(C#N)cc2)cs1)[C@](O)(Cn1cncn1)c1ccc(F)cc1F` [RVCZ, ravuconazole], the MIC range in assay [2] (14 isolates (Nos. 1-14), CLSI M27-A3) is less than 0.003125 to 0.25 µg/mL. Besides, the MIC in assay [2] (72 h, Strain No. 1, Feline cutaneous cryptococcosis, CLSI M27-A3, 35° C.) was determined as 0.0312 µg/mL (≈ 0.0714 µM); in assay [2] (72 h, Strain No. 2, Feline systemic cryptococcosis, CLSI M27-A3, 35° C.), 0.0312 µg/mL (≈ 0.0714 µM); in assay [2] (72 h, Strain No. 3, Feline systemic cryptococcosis, CLSI M27-A3, 35° C.), 0.0312 µg/mL (≈ 0.0714 µM); in assay [2] (72 h, Strain No. 4, Feline cutaneous cryptococcosis, CLSI M27-A3, 35° C.) it was 0.0625 µg/mL (≈ 0.143 µM); in assay [2] (72 h, Strain No. 5, Feline cutaneous cryptococcosis, CLSI M27-A3, 35° C.) it was 0.0625 µg/mL (≈ 0.143 µM); in assay [2] (72 h, Strain No. 6, Feline systemic cryptococcosis, CLSI M27-A3, 35° C.), 0.125 µg/mL (≈ 0.286 µM). For the same molecule, the MIC in assay [2] (72 h, Strain No. 7, Feline systemic cryptococcosis, CLSI M27-A3, 35° C.) stood at 0.0625 µg/mL (≈ 0.143 µM); in assay [2] (72 h, Strain No. 8 (FLCZ resistant strain), Feline systemic cryptococcosis, CLSI M27-A3, 35° C.) it was 0.125 µg/mL (≈ 0.286 µM); in assay [2] (72 h, Strain No. 9, Feline systemic cryptococcosis, CLSI M27-A3, 35° C.) it was 0.0312 µg/mL (≈ 0.0714 µM); in assay [2] (72 h, Strain No. 10, Feline cutaneous cryptococcosis, CLSI M27-A3, 35° C.) it was 0.125 µg/mL (≈ 0.286 µM); in assay [2] (72 h, Strain No. 11, Human cutaneous cryptococcosis, CLSI M27-A3, 35° C.), 0.0312 µg/mL (≈ 0.0714 µM); in assay [2] (72 h, Strain No. 12, Human cutaneous cryptococcosis, CLSI M27-A3, 35° C.), 0.0312 µg/mL (≈ 0.0714 µM). Further, the MIC was 0.0312 µg/mL (≈ 0.0714 µM) in assay [2] (72 h, Strain No. 13, Human cutaneous cryptococcosis, CLSI M27-A3, 35° C.); 0.125 µg/mL (≈ 0.286 µM) in assay [2] (72 h, Strain No. 14 (FLCZ resistant strain), Feline cutaneous cryptococcosis, CLSI M27-A3, 35° C.); 0.5 µg/mL (≈ 1.14 µM) in assay [2] (72 h, Strain No. 15, Multi-azole resistance strain, CLSI M27-A3, 35° C.); 0.5 µg/mL (≈ 1.14 µM) in assay [2] (72 h, Strain No. 16, Multi-azole resistance strain, CLSI M27-A3, 35° C.); 0.25 µg/mL (≈ 0.571 µM) in assay [2] (72 h, Strain No. 17, Multi-azole resistance strain, CLSI M27-A3, 35° C.); 0.25 to 0.5 µg/mL (≈ 0.571 to 1.14 µM) in assay [2] (azole-based multidrug-resistant strains (Nos. 15-17), CLSI M27-A3). Besides, the MIC in assay [2] (read-out: average MIC, 14 isolates (Nos. 1-14), CLSI M27-A3) was determined as 0.0376 µg/mL (≈ 0.0859 µM).

In assay [1], `C[C@@H](c1ncncc1F)[C@](O)(Cn1cncn1)c1ccc(F)cc1F` [VRCZ, voriconazole] displayed an MIC range of less than 0.002 to 0.125 µg/mL. Also, the MIC in assay [1] (setting [3]) is 0.008 µg/mL (≈ 0.0229 µM); in assay [1] (setting [4]), less than 0.002 µg/mL; in assay [1] (setting [5]), 0.032 µg/mL (≈ 0.0916 µM); in assay [1] (setting [6]), 0.064 µg/mL (≈ 0.183 µM); in assay [1] (setting [8]), 0.047 µg/mL (≈ 0.135 µM); in assay [1] (setting [9]), 0.032 µg/mL (≈ 0.0916 µM). The MIC in assay [1] (setting [10]) worked out at 0.094 µg/mL (≈ 0.269 µM); in assay [1] (setting [11]), 0.012 µg/mL (≈ 0.0344 µM); in assay [1] (setting [12]), 0.023 µg/mL (≈ 0.0658 µM); in assay [1] (setting [13]) it was 0.003 µg/mL (≈ 0.00859 µM); in assay [1] (setting [14]), 0.006 µg/mL (≈ 0.0172 µM); in assay [1] (setting [15]) it was 0.003 µg/mL (≈ 0.00859 µM). The MIC in assay [1] (setting [16]) is 0.023 µg/mL (≈ 0.0658 µM); in assay [1] (setting [17]) it was 12 µg/mL (≈ 34.4 µM); in assay [1] (setting [18]), 8 µg/mL (≈ 22.9 µM); in assay [1] (setting [19]), 6 µg/mL (≈ 17.2 µM); in assay [1] (setting [20]) it was 6 to 12 µg/mL (≈ 17.2 to 34.4 µM); in assay [1] (setting [21]), 0.036 µg/mL (≈ 0.103 µM).
